What was measured:
[1] = molecular target: Phosphatidylinositol 4,5-bisphosphate 3-kinase catalytic subunit gamma isoform (Homo sapiens, UniProt P48736); experiment: Inhibition of human PI3K 110gamma by fluorescence-based immunoassay
[2] = molecular target: PI3-kinase p110-alpha/p85-alpha (Homo sapiens, UniProt P42336); experiment: Inhibition of human PI3K p110alpha/p85alpha by fluorescence-based immunoassay; assay type: protein-complex assay
[3] = molecular target: T1, Phosphatidylinositol 4,5-bisphosphate 3-kinase catalytic subunit delta isoform (Homo sapiens, UniProt O00329); experiment: Inhibition of human PI3Kdelta by fluorescence-based immunoassay
T1 sequence (O00329 whole entry): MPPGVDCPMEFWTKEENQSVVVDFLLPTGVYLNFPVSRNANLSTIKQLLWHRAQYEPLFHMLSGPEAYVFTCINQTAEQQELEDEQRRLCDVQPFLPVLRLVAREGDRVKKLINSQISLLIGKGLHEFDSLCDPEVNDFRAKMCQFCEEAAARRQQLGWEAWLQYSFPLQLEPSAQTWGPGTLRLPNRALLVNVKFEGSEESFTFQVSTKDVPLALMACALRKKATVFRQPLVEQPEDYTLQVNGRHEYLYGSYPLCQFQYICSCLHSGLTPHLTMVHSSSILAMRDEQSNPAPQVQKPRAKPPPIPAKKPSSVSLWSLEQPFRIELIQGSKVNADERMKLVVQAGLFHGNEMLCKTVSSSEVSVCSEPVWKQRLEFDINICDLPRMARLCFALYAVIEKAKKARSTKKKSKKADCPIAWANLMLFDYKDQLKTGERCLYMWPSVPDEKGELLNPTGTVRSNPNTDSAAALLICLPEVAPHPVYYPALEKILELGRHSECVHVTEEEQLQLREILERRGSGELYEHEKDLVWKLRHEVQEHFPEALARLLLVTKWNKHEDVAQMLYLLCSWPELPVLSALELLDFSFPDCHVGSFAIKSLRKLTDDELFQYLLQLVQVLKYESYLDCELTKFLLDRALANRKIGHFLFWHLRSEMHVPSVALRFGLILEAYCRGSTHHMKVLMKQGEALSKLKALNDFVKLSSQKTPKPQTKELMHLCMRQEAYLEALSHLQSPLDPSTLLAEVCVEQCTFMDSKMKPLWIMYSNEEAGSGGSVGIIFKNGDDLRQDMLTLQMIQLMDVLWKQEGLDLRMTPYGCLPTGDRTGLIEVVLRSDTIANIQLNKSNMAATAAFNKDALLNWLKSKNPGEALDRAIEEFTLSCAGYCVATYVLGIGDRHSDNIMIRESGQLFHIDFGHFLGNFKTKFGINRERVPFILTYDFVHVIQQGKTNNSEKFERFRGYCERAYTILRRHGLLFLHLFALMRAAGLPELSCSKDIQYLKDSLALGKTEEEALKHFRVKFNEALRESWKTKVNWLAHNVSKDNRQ

[4] = tested on: HeLa; experiment: Antiproliferative activity against human HeLa cells after 72 hrs by MTT assay; assay type: functional, cell-based
[5] = tested on: A549; experiment: Antiproliferative activity against human A549 cells after 72 hrs by MTT assay; assay type: functional, cell-based; settings: A549, 72 h
[6] = molecular target: Phosphatidylinositol 3-kinase regulatory subunit beta/Phosphatidylinositol 4,5-bisphosphate 3-kinase catalytic subunit beta isoform (Homo sapiens, UniProt P42338); experiment: Inhibition of human PI3K p110beta/p85beta by fluorescence-based immunoassay; assay type: protein-complex assay
Chain of Phosphatidylinositol 3-kinase regulatory subunit beta/Phosphatidylinositol 4,5-bisphosphate 3-kinase catalytic subunit beta isoform (P42338 whole entry, canonical isoform): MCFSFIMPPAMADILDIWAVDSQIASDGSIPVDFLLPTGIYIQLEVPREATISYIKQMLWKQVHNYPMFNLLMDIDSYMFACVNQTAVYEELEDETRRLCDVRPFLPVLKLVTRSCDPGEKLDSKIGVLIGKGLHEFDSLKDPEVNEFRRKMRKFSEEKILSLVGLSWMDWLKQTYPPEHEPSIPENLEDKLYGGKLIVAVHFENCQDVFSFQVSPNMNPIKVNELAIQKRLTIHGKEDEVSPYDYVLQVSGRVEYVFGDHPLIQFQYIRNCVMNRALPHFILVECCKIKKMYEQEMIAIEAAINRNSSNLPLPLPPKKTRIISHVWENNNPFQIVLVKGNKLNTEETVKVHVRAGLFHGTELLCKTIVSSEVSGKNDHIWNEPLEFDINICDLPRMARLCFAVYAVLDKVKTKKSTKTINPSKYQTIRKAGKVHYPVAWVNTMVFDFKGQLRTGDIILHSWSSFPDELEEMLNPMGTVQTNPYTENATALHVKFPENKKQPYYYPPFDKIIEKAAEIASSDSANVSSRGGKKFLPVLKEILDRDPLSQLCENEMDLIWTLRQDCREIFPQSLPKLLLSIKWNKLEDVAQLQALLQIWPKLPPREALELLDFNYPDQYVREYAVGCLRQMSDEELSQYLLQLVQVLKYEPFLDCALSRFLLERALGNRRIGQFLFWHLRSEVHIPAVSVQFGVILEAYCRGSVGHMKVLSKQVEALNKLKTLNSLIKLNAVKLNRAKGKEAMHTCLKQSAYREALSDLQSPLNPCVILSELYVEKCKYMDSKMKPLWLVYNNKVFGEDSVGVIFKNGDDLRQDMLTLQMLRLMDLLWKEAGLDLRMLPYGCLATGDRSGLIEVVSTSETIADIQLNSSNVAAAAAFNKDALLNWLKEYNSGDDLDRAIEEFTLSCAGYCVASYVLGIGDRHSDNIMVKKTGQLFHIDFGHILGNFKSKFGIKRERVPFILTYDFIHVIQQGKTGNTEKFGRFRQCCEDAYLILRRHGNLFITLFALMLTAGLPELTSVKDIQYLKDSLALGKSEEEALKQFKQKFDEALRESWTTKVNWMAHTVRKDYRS
Chain of Phosphatidylinositol 3-kinase regulatory subunit beta/Phosphatidylinositol 4,5-bisphosphate 3-kinase catalytic subunit beta isoform (O00459 whole entry, further chain, canonical isoform): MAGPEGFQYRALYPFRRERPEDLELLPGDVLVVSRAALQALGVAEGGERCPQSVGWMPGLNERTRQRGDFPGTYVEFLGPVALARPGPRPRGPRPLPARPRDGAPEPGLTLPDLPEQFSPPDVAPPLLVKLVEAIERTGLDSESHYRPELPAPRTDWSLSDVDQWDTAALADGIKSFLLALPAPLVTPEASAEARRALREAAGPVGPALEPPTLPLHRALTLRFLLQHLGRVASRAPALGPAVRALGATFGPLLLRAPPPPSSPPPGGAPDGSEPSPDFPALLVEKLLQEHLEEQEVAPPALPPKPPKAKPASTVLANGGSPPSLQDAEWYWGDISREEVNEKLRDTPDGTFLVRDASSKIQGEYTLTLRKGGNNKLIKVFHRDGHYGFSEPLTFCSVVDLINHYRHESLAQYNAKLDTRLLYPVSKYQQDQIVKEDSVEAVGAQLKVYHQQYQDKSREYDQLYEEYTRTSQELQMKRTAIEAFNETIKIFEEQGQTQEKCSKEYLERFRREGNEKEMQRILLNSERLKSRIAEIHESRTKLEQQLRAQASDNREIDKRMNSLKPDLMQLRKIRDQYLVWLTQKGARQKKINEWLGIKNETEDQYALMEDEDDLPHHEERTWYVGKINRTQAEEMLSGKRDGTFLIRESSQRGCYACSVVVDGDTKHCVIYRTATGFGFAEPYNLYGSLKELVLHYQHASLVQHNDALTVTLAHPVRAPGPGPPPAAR

[7] = tested on: MCF7; experiment: cells; settings: Homo sapiens, MCF7, 72 h
[8] = tested on: HepG2; experiment: cells; settings: Homo sapiens, HepG2, 72 h
[9] = Cytotoxicity against macrophages after 72 hrs by MTT assay; assay type: cell-based, Macrophage

Chain of Phosphatidylinositol 4,5-bisphosphate 3-kinase catalytic subunit gamma isoform (P48736 whole entry, canonical isoform): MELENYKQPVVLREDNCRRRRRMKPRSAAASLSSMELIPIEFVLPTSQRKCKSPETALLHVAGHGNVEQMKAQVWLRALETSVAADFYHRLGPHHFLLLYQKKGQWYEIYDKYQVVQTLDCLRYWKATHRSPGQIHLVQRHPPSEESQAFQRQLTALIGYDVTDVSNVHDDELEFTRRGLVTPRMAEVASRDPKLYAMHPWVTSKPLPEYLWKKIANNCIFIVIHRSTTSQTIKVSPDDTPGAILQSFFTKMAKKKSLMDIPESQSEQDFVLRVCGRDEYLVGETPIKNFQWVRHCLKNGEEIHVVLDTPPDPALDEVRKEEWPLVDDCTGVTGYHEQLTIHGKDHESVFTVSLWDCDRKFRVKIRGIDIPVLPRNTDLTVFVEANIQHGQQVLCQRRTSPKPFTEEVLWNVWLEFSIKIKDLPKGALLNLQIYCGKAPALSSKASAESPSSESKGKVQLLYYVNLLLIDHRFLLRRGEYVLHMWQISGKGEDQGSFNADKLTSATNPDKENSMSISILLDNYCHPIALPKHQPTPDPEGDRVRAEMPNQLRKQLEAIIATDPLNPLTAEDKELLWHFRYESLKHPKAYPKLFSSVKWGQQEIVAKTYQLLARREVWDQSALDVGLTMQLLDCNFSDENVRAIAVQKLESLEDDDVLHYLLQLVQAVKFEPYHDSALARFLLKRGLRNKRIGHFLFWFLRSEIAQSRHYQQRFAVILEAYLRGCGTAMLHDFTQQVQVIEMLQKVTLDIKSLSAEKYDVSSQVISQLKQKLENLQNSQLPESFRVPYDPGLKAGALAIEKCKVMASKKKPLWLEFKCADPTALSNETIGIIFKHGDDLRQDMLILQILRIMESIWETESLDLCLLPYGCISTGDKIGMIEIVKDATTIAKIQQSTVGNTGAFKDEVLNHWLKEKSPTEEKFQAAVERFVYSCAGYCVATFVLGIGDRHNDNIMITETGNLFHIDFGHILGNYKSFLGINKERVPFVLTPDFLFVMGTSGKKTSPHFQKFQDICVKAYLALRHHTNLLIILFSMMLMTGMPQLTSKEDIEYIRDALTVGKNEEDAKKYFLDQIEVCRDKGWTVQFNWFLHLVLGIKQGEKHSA
Chain of PI3-kinase p110-alpha/p85-alpha (P27986 whole entry, canonical isoform): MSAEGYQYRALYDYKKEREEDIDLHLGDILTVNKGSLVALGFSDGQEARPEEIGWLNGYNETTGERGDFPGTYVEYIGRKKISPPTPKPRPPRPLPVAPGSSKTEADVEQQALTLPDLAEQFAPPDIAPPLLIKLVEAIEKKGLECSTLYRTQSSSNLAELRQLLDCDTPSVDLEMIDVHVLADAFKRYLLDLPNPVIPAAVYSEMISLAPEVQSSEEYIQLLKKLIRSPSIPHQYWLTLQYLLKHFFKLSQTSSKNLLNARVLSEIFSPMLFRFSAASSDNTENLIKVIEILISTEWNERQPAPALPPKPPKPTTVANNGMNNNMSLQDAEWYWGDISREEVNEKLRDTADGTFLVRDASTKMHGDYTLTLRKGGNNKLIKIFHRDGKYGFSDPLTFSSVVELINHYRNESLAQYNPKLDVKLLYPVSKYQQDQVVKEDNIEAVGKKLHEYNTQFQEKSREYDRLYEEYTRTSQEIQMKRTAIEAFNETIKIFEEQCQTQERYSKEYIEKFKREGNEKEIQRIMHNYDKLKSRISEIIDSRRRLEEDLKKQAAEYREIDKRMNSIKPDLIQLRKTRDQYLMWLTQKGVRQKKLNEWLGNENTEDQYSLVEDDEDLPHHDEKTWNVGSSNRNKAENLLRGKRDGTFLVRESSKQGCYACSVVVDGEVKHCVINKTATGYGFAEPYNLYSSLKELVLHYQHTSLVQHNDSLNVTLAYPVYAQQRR
Chain of PI3-kinase p110-alpha/p85-alpha (P42336 whole entry, canonical isoform): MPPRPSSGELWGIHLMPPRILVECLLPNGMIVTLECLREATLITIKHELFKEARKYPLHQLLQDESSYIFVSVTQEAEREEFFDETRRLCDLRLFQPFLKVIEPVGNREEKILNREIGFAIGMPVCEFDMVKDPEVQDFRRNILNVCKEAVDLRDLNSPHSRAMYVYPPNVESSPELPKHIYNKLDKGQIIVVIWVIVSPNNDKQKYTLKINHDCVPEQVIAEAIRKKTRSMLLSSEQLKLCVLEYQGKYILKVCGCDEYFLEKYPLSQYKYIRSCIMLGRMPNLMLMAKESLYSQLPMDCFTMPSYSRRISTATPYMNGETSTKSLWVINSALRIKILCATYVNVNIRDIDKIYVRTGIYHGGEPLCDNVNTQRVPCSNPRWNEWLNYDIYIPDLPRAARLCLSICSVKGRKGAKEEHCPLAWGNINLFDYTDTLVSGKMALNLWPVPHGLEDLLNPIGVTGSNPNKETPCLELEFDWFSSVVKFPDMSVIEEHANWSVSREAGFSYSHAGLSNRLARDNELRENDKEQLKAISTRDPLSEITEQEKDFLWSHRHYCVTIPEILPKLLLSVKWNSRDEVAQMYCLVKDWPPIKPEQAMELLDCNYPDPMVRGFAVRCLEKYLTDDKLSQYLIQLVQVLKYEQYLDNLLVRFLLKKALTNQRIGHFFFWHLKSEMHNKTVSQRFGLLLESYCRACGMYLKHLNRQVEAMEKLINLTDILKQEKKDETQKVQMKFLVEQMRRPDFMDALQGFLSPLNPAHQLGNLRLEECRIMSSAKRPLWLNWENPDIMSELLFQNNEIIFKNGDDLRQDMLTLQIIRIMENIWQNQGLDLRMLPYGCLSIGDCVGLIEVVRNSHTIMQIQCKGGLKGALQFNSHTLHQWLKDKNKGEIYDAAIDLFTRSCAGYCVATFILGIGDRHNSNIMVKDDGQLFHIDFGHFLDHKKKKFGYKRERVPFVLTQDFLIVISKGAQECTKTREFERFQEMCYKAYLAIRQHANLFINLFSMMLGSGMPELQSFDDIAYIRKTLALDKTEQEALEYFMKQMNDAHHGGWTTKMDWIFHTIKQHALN

| Structure (SMILES) | IC50 [1] [µM] | IC50 [2] [µM] | IC50 [3] [µM] | IC50 [4] [µM] | IC50 [5] [µM] | IC50 [6] [µM] | IC50 [7] [µM] | IC50 [8] [µM] | CC50 at 72 h [9] [µM] |
| --- | --- | --- | --- | --- | --- | --- | --- | --- | --- |
| O=C(O)c1cn(C2CC2)c2cc(N3CCN(C(=O)c4cc(Cl)ccc4O)CC3)c(F)cc2c1=O | 0.174 | 0.963 | 0.553 | 64.2 | 114 | > 1 | 88.4 | 50.6 | 269 |
| O=C(O)c1cn(C2CC2)c2cc(N3CCN(C(=O)c4cc([N+](=O)[O-])cc([N+](=O)[O-])c4O)CC3)c(F)cc2c1=O | 0.056 | 0.356 | 0.271 | 0.06 | 0.67 | > 1 | 0.11 | 0.29 | 365 |
| O=C(O)c1cn(C2CC2)c2cc(N3CCN(C(=O)c4cc([N+](=O)[O-])ccc4O)CC3)c(F)cc2c1=O | 0.185 | 0.591 | 0.722 | 25.8 | 87.1 | > 1 | 47.9 | 122 | 297 |
| COc1ccc(C(=O)N2CCN(c3cc4c(cc3F)c(=O)c(C(=O)O)cn4C3CC3)CC2)c(O)c1 | 0.089 | 0.642 | 0.348 | 0.16 | 0.85 | > 1 | 0.33 | 2.59 | 311 |
| CCn1cc(C(=O)O)c(=O)c2cc(F)c(N3CCN(C(=O)c4cccnc4Cl)CC3)cc21 | 0.259 | > 1 | > 1 | 88.9 | 279 | > 1 | 212 | > 1000 | – |
| CCn1cc(C(=O)O)c(=O)c2cc(F)c(N3CCN(C(=O)c4cc(OC)ccc4O)CC3)cc21 | 0.112 | 0.698 | 0.489 | 2.11 | 1.06 | > 1 | 3.79 | 0.47 | 279 |
| CCn1cc(C(=O)O)c(=O)c2cc(F)c(N3CCN(C(=O)c4c(C)cccc4O)CC3)cc21 | 0.173 | 0.914 | 0.683 | 53.3 | 121 | > 1 | 107 | 27.9 | 343 |
| COc1ccc(C(=O)N2CCN(c3cc4c(cc3F)c(=O)c(C(=O)O)cn4C3CC3)CC2)cn1 | 0.285 | > 1 | > 1 | 344 | 680 | > 1 | 42.2 | 65.9 | – |

More lines, in order of falling IC50 [4], values ahead:

| IC50 [1] [µM] | IC50 [2] [µM] | IC50 [3] [µM] | IC50 [4] [µM] | IC50 [5] [µM] | IC50 [6] [µM] | IC50 [7] [µM] | IC50 [8] [µM] | Structure (SMILES) | CC50 at 72 h [9] [µM] |
| --- | --- | --- | --- | --- | --- | --- | --- | --- | --- |
| 0.265 | > 1 | > 1 | 279 | > 1000 | > 1 | 153 | 179 | O=C(O)c1cn(C2CC2)c2cc(N3CCN(C(=O)c4cccnc4Cl)CC3)c(F)cc2c1=O | – |
| 0.279 | > 1 | > 1 | 154 | > 1000 | > 1 | 357 | 426 | CCn1cc(C(=O)O)c(=O)c2cc(F)c(N3CCN(C(=O)c4ccc(OC)nc4)CC3)cc21 | – |
| 0.169 | 0.894 | 0.674 | 19.6 | 77 | > 1 | 22.1 | 36.7 | O=C(O)c1cn(C2CC2)c2cc(N3CCN(C(=O)c4cc(Br)ccc4O)CC3)c(F)cc2c1=O | 289 |
| 0.098 | 0.712 | 0.311 | 0.96 | 1.55 | > 1 | 1.21 | 2.94 | CCn1cc(C(=O)O)c(=O)c2cc(F)c(N3CCN(C(=O)c4cc(Cl)ccc4O)CC3)cc21 | 273 |
| 0.111 | 0.695 | 0.474 | 0.51 | 0.99 | > 1 | 7.03 | 3.22 | CCn1cc(C(=O)O)c(=O)c2cc(F)c(N3CCN(C(=O)c4cc(Br)ccc4O)CC3)cc21 | 266 |
| – | – | – | 0.15 | 0.33 | – | 0.78 | – | CC[C@H](Nc1ncnc2[nH]cnc12)c1nc2cccc(F)c2c(=O)n1-c1ccccc1 [IDELALISIB] | – |

Source: ChEMBL document CHEMBL3769326, “Discovery of fluoroquinolone derivatives as potent, selective inhibitors of PI3K” (Medchemcomm, 2015)
